We go through 7 compounds from ChEMBL document CHEMBL5291721, “A preclinical secondary pharmacology resource illuminates target-adverse drug reaction associations of marketed drugs” (Nat Commun, 2023).

SMILES strings stand for the structures.

Targets include Histamine H3 receptor (Homo sapiens, UniProt Q9Y5N1); D(1A) dopamine receptor (Homo sapiens, UniProt P21728); Mu-type opioid receptor (Homo sapiens, UniProt P35372); D(3) dopamine receptor (Homo sapiens, UniProt P35462).
Experiment [1] deals with Sodium-dependent noradrenaline transporter (Homo sapiens, UniProt P23975).
Experiment [2] deals with 3',5'-cyclic-AMP phosphodiesterase 4A (Homo sapiens, UniProt P27815). The experiment is classed as functional.
3',5'-cyclic-AMP phosphodiesterase 4A, sequence (P27815 whole entry): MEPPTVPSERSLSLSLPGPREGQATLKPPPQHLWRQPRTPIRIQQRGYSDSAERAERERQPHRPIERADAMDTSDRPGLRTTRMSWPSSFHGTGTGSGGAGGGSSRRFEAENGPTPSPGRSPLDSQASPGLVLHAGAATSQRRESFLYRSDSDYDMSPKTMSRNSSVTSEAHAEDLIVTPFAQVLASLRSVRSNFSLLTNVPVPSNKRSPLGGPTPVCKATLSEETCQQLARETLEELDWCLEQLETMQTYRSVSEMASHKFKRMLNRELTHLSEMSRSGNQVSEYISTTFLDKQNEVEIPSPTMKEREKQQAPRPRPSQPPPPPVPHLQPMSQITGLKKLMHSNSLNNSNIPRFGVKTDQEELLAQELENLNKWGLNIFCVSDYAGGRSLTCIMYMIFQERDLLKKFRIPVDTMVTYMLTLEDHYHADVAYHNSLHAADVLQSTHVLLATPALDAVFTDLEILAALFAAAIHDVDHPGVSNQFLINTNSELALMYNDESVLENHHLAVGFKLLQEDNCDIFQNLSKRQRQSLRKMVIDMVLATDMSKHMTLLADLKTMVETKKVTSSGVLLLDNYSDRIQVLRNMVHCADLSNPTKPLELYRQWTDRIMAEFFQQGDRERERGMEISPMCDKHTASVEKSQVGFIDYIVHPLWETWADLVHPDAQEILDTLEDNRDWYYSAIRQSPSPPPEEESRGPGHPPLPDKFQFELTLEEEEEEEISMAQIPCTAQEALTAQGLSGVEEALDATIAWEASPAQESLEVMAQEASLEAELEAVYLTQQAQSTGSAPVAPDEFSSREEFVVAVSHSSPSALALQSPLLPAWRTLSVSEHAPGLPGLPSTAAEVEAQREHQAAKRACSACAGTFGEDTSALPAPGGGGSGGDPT
In experiment [3] the target is T1, Thromboxane A2 receptor (Homo sapiens, UniProt P21731).
T1 sequence (P21731 whole entry): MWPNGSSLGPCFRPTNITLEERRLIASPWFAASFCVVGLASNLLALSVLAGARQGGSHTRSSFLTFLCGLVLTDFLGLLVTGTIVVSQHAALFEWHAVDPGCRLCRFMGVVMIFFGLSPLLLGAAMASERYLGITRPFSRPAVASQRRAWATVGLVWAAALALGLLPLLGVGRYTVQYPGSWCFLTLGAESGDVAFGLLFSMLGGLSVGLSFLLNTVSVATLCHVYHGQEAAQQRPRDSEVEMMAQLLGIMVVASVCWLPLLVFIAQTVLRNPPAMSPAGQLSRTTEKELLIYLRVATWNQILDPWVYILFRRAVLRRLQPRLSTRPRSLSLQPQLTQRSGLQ
The experiment is classed as functional, cell-based.

In experiment [4] the target is 5-hydroxytryptamine receptor 2B (Homo sapiens, UniProt P41595). The experiment is classed as functional, cell-based.
Experiment [5] deals with Prostaglandin G/H synthase 1 (Homo sapiens, UniProt P23219). The experiment is classed as functional.
Prostaglandin G/H synthase 1, sequence (P23219 whole entry): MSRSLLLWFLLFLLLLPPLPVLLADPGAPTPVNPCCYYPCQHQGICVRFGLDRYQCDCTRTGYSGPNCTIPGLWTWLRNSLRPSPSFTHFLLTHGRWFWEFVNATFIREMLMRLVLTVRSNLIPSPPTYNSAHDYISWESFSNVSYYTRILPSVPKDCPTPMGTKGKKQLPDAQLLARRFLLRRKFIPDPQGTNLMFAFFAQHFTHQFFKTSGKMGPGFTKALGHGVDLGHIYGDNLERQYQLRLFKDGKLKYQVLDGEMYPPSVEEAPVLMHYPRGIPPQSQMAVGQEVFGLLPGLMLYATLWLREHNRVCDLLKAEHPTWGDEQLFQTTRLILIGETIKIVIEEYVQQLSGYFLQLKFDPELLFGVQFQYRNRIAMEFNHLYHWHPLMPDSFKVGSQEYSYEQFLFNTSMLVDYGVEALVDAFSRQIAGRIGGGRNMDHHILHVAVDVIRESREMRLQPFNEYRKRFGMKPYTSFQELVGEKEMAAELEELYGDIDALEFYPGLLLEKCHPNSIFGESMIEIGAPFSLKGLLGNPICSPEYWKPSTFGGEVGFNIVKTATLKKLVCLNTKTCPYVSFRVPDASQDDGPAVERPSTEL
The target in experiment [6] is Voltage-gated inwardly rectifying potassium channel KCNH2 (Homo sapiens, UniProt Q12809). The experiment is classed as functional.
Voltage-gated inwardly rectifying potassium channel KCNH2, sequence (Q12809 whole entry): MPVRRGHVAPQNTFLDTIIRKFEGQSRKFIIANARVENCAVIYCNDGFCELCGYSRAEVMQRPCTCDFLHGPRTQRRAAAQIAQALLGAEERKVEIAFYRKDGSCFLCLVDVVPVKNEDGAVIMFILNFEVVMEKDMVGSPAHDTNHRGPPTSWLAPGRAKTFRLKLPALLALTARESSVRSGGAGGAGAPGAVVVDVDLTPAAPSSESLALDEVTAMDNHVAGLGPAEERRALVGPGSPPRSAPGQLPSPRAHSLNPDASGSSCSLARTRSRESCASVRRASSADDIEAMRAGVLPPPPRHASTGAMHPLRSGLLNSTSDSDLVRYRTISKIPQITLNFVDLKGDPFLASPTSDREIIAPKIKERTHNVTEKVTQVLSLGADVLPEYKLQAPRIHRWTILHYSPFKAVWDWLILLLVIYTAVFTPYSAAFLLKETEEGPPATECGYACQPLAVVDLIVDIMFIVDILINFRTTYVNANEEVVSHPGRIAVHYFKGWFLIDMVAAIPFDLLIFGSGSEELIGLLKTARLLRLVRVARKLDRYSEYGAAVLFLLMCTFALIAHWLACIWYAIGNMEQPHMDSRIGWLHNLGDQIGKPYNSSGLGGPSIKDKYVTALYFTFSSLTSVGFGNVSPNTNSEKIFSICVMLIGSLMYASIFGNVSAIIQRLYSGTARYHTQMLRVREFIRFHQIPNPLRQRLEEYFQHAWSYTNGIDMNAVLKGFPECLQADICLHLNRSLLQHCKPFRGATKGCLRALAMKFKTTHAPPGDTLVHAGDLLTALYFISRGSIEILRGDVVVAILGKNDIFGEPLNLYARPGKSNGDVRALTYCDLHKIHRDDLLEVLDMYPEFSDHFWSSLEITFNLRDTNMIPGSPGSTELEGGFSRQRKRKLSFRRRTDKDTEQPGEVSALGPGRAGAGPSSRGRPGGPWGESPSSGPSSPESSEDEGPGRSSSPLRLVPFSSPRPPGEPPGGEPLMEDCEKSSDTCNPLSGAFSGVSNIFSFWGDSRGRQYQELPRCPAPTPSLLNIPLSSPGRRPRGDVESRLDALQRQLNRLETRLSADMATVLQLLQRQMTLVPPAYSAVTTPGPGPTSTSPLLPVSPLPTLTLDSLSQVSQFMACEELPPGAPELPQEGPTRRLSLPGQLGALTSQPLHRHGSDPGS
A further experiment has as its target T2, Progesterone receptor (Homo sapiens, UniProt P06401).
T2 sequence (P06401 whole entry): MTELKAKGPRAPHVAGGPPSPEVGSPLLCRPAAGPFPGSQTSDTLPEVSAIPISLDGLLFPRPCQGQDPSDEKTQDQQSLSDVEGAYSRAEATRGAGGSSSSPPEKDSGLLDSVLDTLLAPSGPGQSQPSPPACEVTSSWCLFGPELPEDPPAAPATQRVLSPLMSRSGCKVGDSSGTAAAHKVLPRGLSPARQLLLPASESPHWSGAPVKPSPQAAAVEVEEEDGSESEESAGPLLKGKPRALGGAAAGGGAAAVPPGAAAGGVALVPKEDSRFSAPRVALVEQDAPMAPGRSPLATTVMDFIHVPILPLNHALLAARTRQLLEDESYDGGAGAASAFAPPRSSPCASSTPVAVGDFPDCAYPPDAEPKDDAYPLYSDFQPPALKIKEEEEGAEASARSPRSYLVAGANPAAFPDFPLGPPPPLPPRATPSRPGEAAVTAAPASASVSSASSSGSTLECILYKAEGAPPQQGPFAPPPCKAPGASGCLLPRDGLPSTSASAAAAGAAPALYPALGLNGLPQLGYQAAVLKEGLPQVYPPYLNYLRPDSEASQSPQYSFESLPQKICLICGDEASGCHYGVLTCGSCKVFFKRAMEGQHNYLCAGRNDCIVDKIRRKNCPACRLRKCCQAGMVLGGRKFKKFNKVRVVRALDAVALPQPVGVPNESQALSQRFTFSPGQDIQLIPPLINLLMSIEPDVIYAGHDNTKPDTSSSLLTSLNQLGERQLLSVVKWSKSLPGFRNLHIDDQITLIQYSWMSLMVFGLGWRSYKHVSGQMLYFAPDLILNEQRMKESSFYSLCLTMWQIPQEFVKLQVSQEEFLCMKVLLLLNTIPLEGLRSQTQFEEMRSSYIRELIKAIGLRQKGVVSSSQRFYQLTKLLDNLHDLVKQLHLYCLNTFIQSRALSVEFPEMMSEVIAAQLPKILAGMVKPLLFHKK

The target in experiment [7] is T3, Alpha-2A adrenergic receptor (Homo sapiens, UniProt P08913).
T3 sequence (P08913 whole entry): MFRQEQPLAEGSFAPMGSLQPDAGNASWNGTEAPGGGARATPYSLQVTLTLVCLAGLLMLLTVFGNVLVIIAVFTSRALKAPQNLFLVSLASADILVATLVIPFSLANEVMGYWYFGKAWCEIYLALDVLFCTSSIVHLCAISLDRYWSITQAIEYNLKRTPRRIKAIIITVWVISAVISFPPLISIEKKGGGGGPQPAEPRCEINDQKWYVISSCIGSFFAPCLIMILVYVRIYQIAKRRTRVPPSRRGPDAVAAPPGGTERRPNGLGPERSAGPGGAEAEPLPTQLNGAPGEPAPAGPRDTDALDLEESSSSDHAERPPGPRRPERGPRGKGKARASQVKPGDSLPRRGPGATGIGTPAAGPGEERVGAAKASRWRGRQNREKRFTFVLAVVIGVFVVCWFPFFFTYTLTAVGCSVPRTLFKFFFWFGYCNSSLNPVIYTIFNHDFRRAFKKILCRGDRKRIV

In experiment [8] the target is T4, 5-hydroxytryptamine receptor 1A (Homo sapiens, UniProt P08908).
T4 sequence (P08908 whole entry): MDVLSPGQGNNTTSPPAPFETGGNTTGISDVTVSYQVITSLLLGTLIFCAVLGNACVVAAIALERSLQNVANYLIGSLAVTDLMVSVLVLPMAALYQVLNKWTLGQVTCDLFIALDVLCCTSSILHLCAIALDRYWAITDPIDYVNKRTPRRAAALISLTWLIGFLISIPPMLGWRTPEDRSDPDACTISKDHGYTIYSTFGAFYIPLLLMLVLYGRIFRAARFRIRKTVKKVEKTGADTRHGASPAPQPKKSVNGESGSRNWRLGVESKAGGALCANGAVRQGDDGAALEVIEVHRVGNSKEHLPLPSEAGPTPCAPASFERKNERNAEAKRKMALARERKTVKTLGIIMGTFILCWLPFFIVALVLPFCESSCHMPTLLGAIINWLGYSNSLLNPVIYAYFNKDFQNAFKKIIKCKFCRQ

The target in another experiment is Acetylcholinesterase (Homo sapiens, UniProt P22303). The experiment is classed as functional.
Acetylcholinesterase, sequence (P22303 whole entry): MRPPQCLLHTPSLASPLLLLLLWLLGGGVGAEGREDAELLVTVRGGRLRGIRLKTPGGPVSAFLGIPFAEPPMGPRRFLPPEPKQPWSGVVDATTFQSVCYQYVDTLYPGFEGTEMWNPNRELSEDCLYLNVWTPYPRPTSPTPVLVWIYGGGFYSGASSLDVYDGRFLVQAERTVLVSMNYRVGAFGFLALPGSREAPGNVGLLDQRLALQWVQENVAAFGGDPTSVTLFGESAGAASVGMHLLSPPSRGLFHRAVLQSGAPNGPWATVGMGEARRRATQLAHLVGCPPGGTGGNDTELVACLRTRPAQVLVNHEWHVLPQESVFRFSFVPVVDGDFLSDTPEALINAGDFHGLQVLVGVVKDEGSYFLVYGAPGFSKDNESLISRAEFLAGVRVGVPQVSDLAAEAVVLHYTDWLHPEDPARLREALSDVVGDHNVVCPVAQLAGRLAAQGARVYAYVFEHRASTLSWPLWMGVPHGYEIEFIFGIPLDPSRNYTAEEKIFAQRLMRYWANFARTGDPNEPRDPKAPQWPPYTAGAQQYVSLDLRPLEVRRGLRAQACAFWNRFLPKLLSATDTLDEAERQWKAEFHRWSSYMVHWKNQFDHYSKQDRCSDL
For experiment [9], the target named is T1, Thromboxane A2 receptor. The experiment is classed as functional, cell-based. This is another data set of the same source.
The target of experiment [10] is Sodium-dependent dopamine transporter (Homo sapiens, UniProt Q01959).
A further experiment addresses Prothrombin (Homo sapiens, UniProt P00734). The experiment is classed as functional.
Further: assay procedure not described here.

D(3) dopamine receptor, sequence (P35462 whole entry): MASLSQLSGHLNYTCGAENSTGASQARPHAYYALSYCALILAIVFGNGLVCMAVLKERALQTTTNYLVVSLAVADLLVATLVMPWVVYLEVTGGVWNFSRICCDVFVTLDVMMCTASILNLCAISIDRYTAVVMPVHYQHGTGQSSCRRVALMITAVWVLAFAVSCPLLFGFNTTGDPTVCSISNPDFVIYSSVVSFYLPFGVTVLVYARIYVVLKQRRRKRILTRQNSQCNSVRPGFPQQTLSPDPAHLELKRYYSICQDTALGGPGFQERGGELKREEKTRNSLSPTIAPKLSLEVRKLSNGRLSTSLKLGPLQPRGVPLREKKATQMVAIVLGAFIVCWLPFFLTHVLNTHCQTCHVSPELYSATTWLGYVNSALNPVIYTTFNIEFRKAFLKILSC
Histamine H3 receptor, sequence (Q9Y5N1 whole entry): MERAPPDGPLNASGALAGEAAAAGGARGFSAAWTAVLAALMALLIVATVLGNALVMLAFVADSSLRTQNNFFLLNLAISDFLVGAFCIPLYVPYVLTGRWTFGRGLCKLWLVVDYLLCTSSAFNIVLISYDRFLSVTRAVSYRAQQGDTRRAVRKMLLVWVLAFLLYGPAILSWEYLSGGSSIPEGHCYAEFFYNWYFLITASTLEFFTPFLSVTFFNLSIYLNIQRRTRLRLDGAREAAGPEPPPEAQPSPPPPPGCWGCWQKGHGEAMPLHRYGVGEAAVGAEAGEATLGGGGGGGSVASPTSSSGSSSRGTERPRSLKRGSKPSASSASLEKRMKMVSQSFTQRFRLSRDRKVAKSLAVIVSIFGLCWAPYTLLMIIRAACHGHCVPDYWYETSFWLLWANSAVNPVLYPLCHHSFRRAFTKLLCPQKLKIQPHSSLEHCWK
D(1A) dopamine receptor, sequence (P21728 whole entry): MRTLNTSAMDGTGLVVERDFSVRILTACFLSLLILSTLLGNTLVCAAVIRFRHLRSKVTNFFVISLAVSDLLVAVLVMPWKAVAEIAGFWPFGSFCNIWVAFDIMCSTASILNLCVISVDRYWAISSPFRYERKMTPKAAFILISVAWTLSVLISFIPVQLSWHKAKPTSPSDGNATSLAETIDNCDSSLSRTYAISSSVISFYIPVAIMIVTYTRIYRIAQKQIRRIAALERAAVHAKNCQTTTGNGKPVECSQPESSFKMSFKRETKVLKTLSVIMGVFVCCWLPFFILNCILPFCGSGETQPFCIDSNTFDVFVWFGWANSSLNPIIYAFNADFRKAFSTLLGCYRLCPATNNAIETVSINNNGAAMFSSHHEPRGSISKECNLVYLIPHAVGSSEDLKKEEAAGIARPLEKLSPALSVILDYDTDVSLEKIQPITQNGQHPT
Mu-type opioid receptor, sequence (P35372 whole entry): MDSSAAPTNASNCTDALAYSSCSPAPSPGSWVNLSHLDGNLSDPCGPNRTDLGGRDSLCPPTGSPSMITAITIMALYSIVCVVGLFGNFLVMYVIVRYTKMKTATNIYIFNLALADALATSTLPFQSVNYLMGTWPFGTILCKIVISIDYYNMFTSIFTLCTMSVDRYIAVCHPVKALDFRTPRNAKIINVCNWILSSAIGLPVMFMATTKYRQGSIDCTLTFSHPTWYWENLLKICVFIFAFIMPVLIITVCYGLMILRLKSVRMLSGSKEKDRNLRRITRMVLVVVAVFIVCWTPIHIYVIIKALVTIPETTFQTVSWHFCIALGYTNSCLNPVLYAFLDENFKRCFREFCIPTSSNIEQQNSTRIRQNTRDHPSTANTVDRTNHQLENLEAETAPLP

`CCCCC1C(=O)N(c2ccccc2)N(c2ccc(O)cc2)C1=O` (centres undefined) [OXYPHENBUTAZONE ANHYDROUS]: the AC50 in [1] is more than 30 µM; in experiment [2], more than 30 µM; on Histamine H3 receptor it was more than 30 µM; on Thromboxane A2 receptor [3], more than 30 µM; in [4], more than 30 µM; in experiment [5] it was 7.8 µM. For the same compound, the half-maximal activity concentration (AC50) (in experiment [6]; on Progesterone receptor; in experiment [7]; in [8]; at D(1A) dopamine receptor; at Mu-type opioid receptor) was more than 30 µM each time. The half-maximal activity concentration (AC50) (on Acetylcholinesterase; at Thromboxane A2 receptor [9]; at D(3) dopamine receptor; in [10]; on Prothrombin) was more than 30 µM each time.

`CC(C)NC(=N)NC(=N)Nc1ccc(Cl)c(Cl)c1` [CHLORPROGUANIL]: the AC50 is 2.89 µM in [1]; more than 30 µM in experiment [2]; more than 30 µM on Histamine H3 receptor; more than 30 µM on Thromboxane A2 receptor [3]; more than 30 µM in [4]; more than 30 µM in [5]. Also, the half-maximal activity concentration (AC50) is 2.6 µM in experiment [6]; more than 30 µM on Progesterone receptor; 5.59 µM in experiment [7]; 3.82 µM in [8]; 1.77 µM at D(1A) dopamine receptor; 11.2 µM at Mu-type opioid receptor. Besides, the half-maximal activity concentration (AC50) at Acetylcholinesterase is more than 30 µM; at Thromboxane A2 receptor [9], more than 10 µM; at D(3) dopamine receptor, more than 30 µM; in [10] it was 1.86 µM; at Prothrombin, more than 30 µM.

For the compound `C[C@]12C=CC(=O)C=C1CC[C@H]1[C@@H]3C[C@@H](O)[C@](O)(C(=O)CO)[C@@]3(C)C[C@H](O)[C@@]12F` [TRIAMCINOLONE], the AC50 (in experiment [1]; in [2]; on Histamine H3 receptor; at Thromboxane A2 receptor [3]; in experiment [4]; in experiment [5]) was more than 30 µM throughout. The AC50 in experiment [6] is more than 30 µM; on Progesterone receptor, 19.7 µM; in [7] it was more than 30 µM; in experiment [8], more than 30 µM; at D(1A) dopamine receptor it was more than 30 µM; at Mu-type opioid receptor, more than 30 µM. In addition, the half-maximal activity concentration (AC50) (on Acetylcholinesterase; at Thromboxane A2 receptor [9]; on D(3) dopamine receptor; in experiment [10]; at Prothrombin) was more than 30 µM each time.

Consider `C[Se]CC[C@H](N)C(=O)O` [SELENOMETHIONINE], for which the concentration at half-maximal activity (AC50) (in experiment [1]; in experiment [2]; on Histamine H3 receptor; on Thromboxane A2 receptor [3]; in experiment [4]; in experiment [5]) was more than 30 µM throughout. For the same compound, the AC50 (in experiment [6]; on Progesterone receptor; in experiment [7]; in [8]; on D(1A) dopamine receptor; at Mu-type opioid receptor) was more than 30 µM in each case. Further, the AC50 (on Acetylcholinesterase; at Thromboxane A2 receptor [9]; on D(3) dopamine receptor; in [10]; at Prothrombin) was more than 30 µM each time.

Consider `CC1(C)O[C@@H]2C[C@H]3[C@@H]4C[C@H](F)C5=CC(=O)C=C[C@]5(C)[C@@]4(F)[C@@H](O)C[C@]3(C)[C@]2(C(=O)CO)O1` [FLUOCINOLONE ACETONIDE], for which the concentration at half-maximal activity (AC50) (in experiment [1]; in [2]; on Histamine H3 receptor; at Thromboxane A2 receptor [3]; in experiment [4]; in experiment [5]) was more than 30 µM in each case. The concentration at half-maximal activity (AC50) in experiment [6] is more than 30 µM; at Progesterone receptor it was 0.0107 µM; in experiment [7] it was more than 30 µM; in [8], more than 30 µM; on D(1A) dopamine receptor it was more than 30 µM; at Mu-type opioid receptor it was more than 30 µM. Further, the half-maximal activity concentration (AC50) (on Acetylcholinesterase; at Thromboxane A2 receptor [9]; on D(3) dopamine receptor; in experiment [10]; on Prothrombin) was more than 30 µM in each case.

As to `COc1cc(C(C)=O)ccc1OCCCN1CCC(c2noc3cc(F)ccc23)CC1` [ILOPERIDONE], the AC50 in experiment [1] is 1.19 µM; in experiment [2] it was more than 30 µM; at Histamine H3 receptor, more than 30 µM; on Thromboxane A2 receptor [3], more than 10 µM; in experiment [4], more than 30 µM; in experiment [5], more than 30 µM. Besides, the half-maximal activity concentration (AC50) was 0.15 µM in experiment [6]; more than 30 µM at Progesterone receptor; 0.06 µM in experiment [7]; 0.11 µM in [8]; 0.01 µM on D(1A) dopamine receptor; 4.11 µM at Mu-type opioid receptor. Also, the AC50 on Acetylcholinesterase was 15.9 µM; at Thromboxane A2 receptor [9], more than 10 µM; on D(3) dopamine receptor, 0.0099 µM; in experiment [10], 5.94 µM; on Prothrombin, more than 30 µM.

As to `CCC1=C[C@@H]2CN(C1)Cc1c([nH]c3ccccc13)[C@@](C(=O)OC)(c1cc3c(cc1OC)N(C)[C@H]1[C@@](O)(C(=O)OC)[C@H](OC(C)=O)[C@]4(CC)C=CCN5CC[C@]31[C@@H]54)C2` [VINORELBINE], the AC50 (in experiment [1]; in [2]; on Histamine H3 receptor; on Thromboxane A2 receptor [3]; in [4]; in [5]) was more than 30 µM in each case. Further, the half-maximal activity concentration (AC50) was 5.5 µM in experiment [6]; more than 30 µM at Progesterone receptor; more than 30 µM in experiment [7]; more than 30 µM in experiment [8]; more than 30 µM on D(1A) dopamine receptor; 6.76 µM at Mu-type opioid receptor. For the same compound, the half-maximal activity concentration (AC50) (at Acetylcholinesterase; on Thromboxane A2 receptor [9]; on D(3) dopamine receptor; in [10]; on Prothrombin) was more than 30 µM each time.
